Laboratory results: the NIST ThermoML archive (doi:10.1016/j.jct.2016.04.014)
Numbers after ± are expanded uncertainties.

Details: Liquid, Vibrating tube method

Structure (SMILES): CCO [ethanol]
- mass density (288.15 K, 100 kPa): 793.7 ± 1.7 kg/m3
- mass density (288.15 K, 1000 kPa): 794.4 ± 1.7 kg/m3
- mass density (288.15 K, 5000 kPa): 797.6 ± 1.7 kg/m3
- mass density (288.15 K, 10000 kPa): 801.5 ± 1.7 kg/m3
- mass density (288.15 K, 15000 kPa): 805.3 ± 1.7 kg/m3
- mass density (288.15 K, 20000 kPa): 808.9 ± 1.7 kg/m3
- mass density (288.15 K, 25000 kPa): 812.4 ± 1.7 kg/m3
- mass density (288.15 K, 30000 kPa): 815.7 ± 1.7 kg/m3
- mass density (288.15 K, 35000 kPa): 819 ± 1.7 kg/m3
- mass density (288.15 K, 40000 kPa): 822.1 ± 1.7 kg/m3
- mass density (288.15 K, 45000 kPa): 825.1 ± 1.7 kg/m3
- mass density (288.15 K, 50000 kPa): 828 ± 1.7 kg/m3
- mass density (288.15 K, 55000 kPa): 830.7 ± 1.8 kg/m3
- mass density (288.15 K, 60000 kPa): 833.3 ± 1.8 kg/m3
- mass density (293.15 K, 100 kPa): 789.4 ± 1.7 kg/m3
- mass density (293.15 K, 1000 kPa): 790.2 ± 1.7 kg/m3
- mass density (293.15 K, 5000 kPa): 793.5 ± 1.7 kg/m3
- mass density (293.15 K, 10000 kPa): 797.4 ± 1.7 kg/m3
- mass density (293.15 K, 15000 kPa): 801.3 ± 1.7 kg/m3
- mass density (293.15 K, 20000 kPa): 805 ± 1.7 kg/m3
- mass density (293.15 K, 25000 kPa): 808.6 ± 1.7 kg/m3
- mass density (293.15 K, 30000 kPa): 812 ± 1.7 kg/m3
- mass density (293.15 K, 35000 kPa): 815.3 ± 1.7 kg/m3
- mass density (293.15 K, 40000 kPa): 818.5 ± 1.7 kg/m3
- mass density (293.15 K, 45000 kPa): 821.5 ± 1.7 kg/m3
- mass density (293.15 K, 50000 kPa): 824.5 ± 1.7 kg/m3
- mass density (293.15 K, 55000 kPa): 827.2 ± 1.8 kg/m3
- mass density (293.15 K, 60000 kPa): 829.9 ± 1.8 kg/m3
- mass density (298.15 K, 100 kPa): 785.2 ± 1.7 kg/m3
- mass density (298.15 K, 1000 kPa): 785.9 ± 1.7 kg/m3
- mass density (298.15 K, 5000 kPa): 789.3 ± 1.7 kg/m3
- mass density (298.15 K, 10000 kPa): 793.4 ± 1.7 kg/m3
- mass density (298.15 K, 15000 kPa): 797.3 ± 1.7 kg/m3
- mass density (298.15 K, 20000 kPa): 801.1 ± 1.7 kg/m3
- mass density (298.15 K, 25000 kPa): 804.8 ± 1.7 kg/m3
- mass density (298.15 K, 30000 kPa): 808.3 ± 1.7 kg/m3
- mass density (298.15 K, 35000 kPa): 811.7 ± 1.7 kg/m3
- mass density (298.15 K, 40000 kPa): 814.9 ± 1.7 kg/m3
- mass density (298.15 K, 45000 kPa): 818 ± 1.7 kg/m3
- mass density (298.15 K, 50000 kPa): 821 ± 1.8 kg/m3
- mass density (298.15 K, 55000 kPa): 823.8 ± 1.8 kg/m3
- mass density (298.15 K, 60000 kPa): 826.5 ± 1.8 kg/m3
- mass density (303.15 K, 100 kPa): 780.9 ± 1.7 kg/m3
- mass density (303.15 K, 101 kPa): 780.83 ± 0.15 kg/m3
- mass density (303.15 K, 1000 kPa): 781.6 ± 1.7 kg/m3
- mass density (303.15 K, 5000 kPa): 785.1 ± 1.7 kg/m3
- mass density (303.15 K, 10000 kPa): 789.3 ± 1.7 kg/m3
- mass density (303.15 K, 15000 kPa): 793.3 ± 1.7 kg/m3
- mass density (303.15 K, 20000 kPa): 797.2 ± 1.7 kg/m3
- mass density (303.15 K, 25000 kPa): 801 ± 1.7 kg/m3
- mass density (303.15 K, 30000 kPa): 804.6 ± 1.7 kg/m3
- mass density (303.15 K, 35000 kPa): 808 ± 1.7 kg/m3
- mass density (303.15 K, 40000 kPa): 811.3 ± 1.7 kg/m3
- mass density (303.15 K, 45000 kPa): 814.5 ± 1.7 kg/m3
- mass density (303.15 K, 50000 kPa): 817.5 ± 1.8 kg/m3
- mass density (303.15 K, 55000 kPa): 820.3 ± 1.8 kg/m3
- mass density (303.15 K, 60000 kPa): 823.1 ± 1.8 kg/m3
- mass density (308.15 K, 100 kPa): 776.5 ± 1.7 kg/m3
- mass density (308.15 K, 1000 kPa): 777.3 ± 1.7 kg/m3
- mass density (308.15 K, 5000 kPa): 780.9 ± 1.7 kg/m3
- mass density (308.15 K, 10000 kPa): 785.2 ± 1.7 kg/m3
- mass density (308.15 K, 15000 kPa): 789.3 ± 1.7 kg/m3
- mass density (308.15 K, 20000 kPa): 793.3 ± 1.7 kg/m3
- mass density (308.15 K, 25000 kPa): 797.1 ± 1.7 kg/m3
- mass density (308.15 K, 30000 kPa): 800.8 ± 1.7 kg/m3
- mass density (308.15 K, 35000 kPa): 804.3 ± 1.7 kg/m3
- mass density (308.15 K, 40000 kPa): 807.7 ± 1.7 kg/m3
- mass density (308.15 K, 45000 kPa): 810.9 ± 1.7 kg/m3
- mass density (308.15 K, 50000 kPa): 814 ± 1.8 kg/m3
- mass density (308.15 K, 55000 kPa): 816.9 ± 1.8 kg/m3
- mass density (308.15 K, 60000 kPa): 819.6 ± 1.8 kg/m3
- mass density (313.15 K, 100 kPa): 772.1 ± 1.7 kg/m3
- mass density (313.15 K, 101 kPa): 772.1 ± 0.15 kg/m3
- mass density (313.15 K, 1000 kPa): 773 ± 1.7 kg/m3
- mass density (313.15 K, 5000 kPa): 776.6 ± 1.7 kg/m3
- mass density (313.15 K, 10000 kPa): 781 ± 1.7 kg/m3
- mass density (313.15 K, 15000 kPa): 785.3 ± 1.7 kg/m3
- mass density (313.15 K, 20000 kPa): 789.4 ± 1.7 kg/m3
- mass density (313.15 K, 25000 kPa): 793.3 ± 1.7 kg/m3
- mass density (313.15 K, 30000 kPa): 797 ± 1.7 kg/m3
- mass density (313.15 K, 35000 kPa): 800.6 ± 1.7 kg/m3
- mass density (313.15 K, 40000 kPa): 804.1 ± 1.7 kg/m3
- mass density (313.15 K, 45000 kPa): 807.4 ± 1.7 kg/m3
- mass density (313.15 K, 50000 kPa): 810.5 ± 1.8 kg/m3
- mass density (313.15 K, 55000 kPa): 813.4 ± 1.8 kg/m3
- mass density (313.15 K, 60000 kPa): 816.2 ± 1.8 kg/m3
- mass density (318.15 K, 100 kPa): 767.7 ± 1.7 kg/m3
- mass density (318.15 K, 1000 kPa): 768.5 ± 1.7 kg/m3
- mass density (318.15 K, 5000 kPa): 772.3 ± 1.7 kg/m3
- mass density (318.15 K, 10000 kPa): 776.8 ± 1.7 kg/m3
- mass density (318.15 K, 15000 kPa): 781.2 ± 1.7 kg/m3
- mass density (318.15 K, 20000 kPa): 785.4 ± 1.7 kg/m3
- mass density (318.15 K, 25000 kPa): 789.4 ± 1.7 kg/m3
- mass density (318.15 K, 30000 kPa): 793.2 ± 1.7 kg/m3
- mass density (318.15 K, 35000 kPa): 796.9 ± 1.7 kg/m3
- mass density (318.15 K, 40000 kPa): 800.4 ± 1.7 kg/m3
- mass density (318.15 K, 45000 kPa): 803.8 ± 1.8 kg/m3
- mass density (318.15 K, 50000 kPa): 806.9 ± 1.8 kg/m3
- mass density (318.15 K, 55000 kPa): 809.9 ± 1.8 kg/m3
- mass density (318.15 K, 60000 kPa): 812.8 ± 1.8 kg/m3
- mass density (323.15 K, 100 kPa): 763.2 ± 1.7 kg/m3
- mass density (323.15 K, 101 kPa): 763.22 ± 0.15 kg/m3
- mass density (323.15 K, 1000 kPa): 764.1 ± 1.7 kg/m3
- mass density (323.15 K, 5000 kPa): 768 ± 1.7 kg/m3
- mass density (323.15 K, 10000 kPa): 772.6 ± 1.7 kg/m3
- mass density (323.15 K, 15000 kPa): 777.1 ± 1.7 kg/m3
- mass density (323.15 K, 20000 kPa): 781.4 ± 1.7 kg/m3
- mass density (323.15 K, 25000 kPa): 785.5 ± 1.7 kg/m3
- mass density (323.15 K, 30000 kPa): 789.4 ± 1.7 kg/m3
- mass density (323.15 K, 35000 kPa): 793.2 ± 1.7 kg/m3
- mass density (323.15 K, 40000 kPa): 796.8 ± 1.7 kg/m3
